Experiments:
[1] = system: myeloperoxidase immunoreactivity (PMN leukocytes); assay: Immunohistochemistry of myeloperoxidase after MCA-O; format: in vivo, mouse; settings: infusion 0.4 μg over 48 h; 1 h MCA-O, 48 h reperfusion
Description: Immunohistochemistry of myeloperoxidase to assess leukocyte infiltration. After MCA-O, mice were infused by Alzet mini-pumps with vehicle or 10,17S-docosatriene (NPD1). After 48 h, mice were anesthetized and killed by intracardial perfusion of ice-cold saline followed by 10% neutral buffered formalin. Brain tissues were allowed to equilibrate overnight in 4% buffered formalin, followed by 30% sucrose in 0.1 M PBS. Frozen sections were made at 10 μm thickness and mounted on glass slides. Sections were permeablized with 0.6% Triton X-100 for 10 min, washed in PBS, and blocked in 2% goat serum in PBS for 30 min. Incubation with myeloperoxidase/FITC-conjugated antibody (DAKO A/S, Denmark) was performed at 1:200 dilution for 2 h. Sections were washed in Tween-20 in PBS then mounted in Vectashield (Vector, Calif.). Images were recorded by deconvolution microscope (Intelligent Imaging Innovations, Denver, Colo.).
To determine whether 10,17S-docosatriene (NPD1) affected brain ischemia-reperfusion-induced PMN infiltration, either DHA or 10,17S-docosatriene (NPD1) was constantly infused into the third ventricle of a mouse brain during 48 h of reperfusion. […] The data shown represent averages± SD of the indicated number (n) of individual mice. Immunocytochemical changes in polymorphonuclear leukocytes were shown by a green fluorescence that indicated myeloperoxidase immunoreactivity. […]

[2] = system: B94 gene expression; assay: HGU133 GeneChip DNA array in HN cells: B94; format: cell-based, human; settings: Aβ42 25 μM, DHA 50 nM or NPD1 50 nM, 18 h, nsc = no significant change
From the text: RNA Isolation and Spectral Quality. Brain tissues were rapidly processed, and total RNA was extracted using Trizol reagent (Invitrogen, Carlsbad, Calif.). Total RNA quality and abundance were profiled using RNA Nano LabChips (Caliper Technologies, Mountainview, Calif.; Agilent Technologies, Palo Alto, Calif.).
Probe Synthesis and GeneChip Hybridization. Biotinylated antisense cRNAs were synthesized from cDNA using the Superscript Choice System (Invitrogen) and Enzo Biorray High Yield RNA Transcript Labeling kits according to the manufacturer's protocols (Affymetrix) and as described in Colangelo, V., Schurr, J., Ball, M. J., Pelaez, R. P., Bazan, N. G., Lukiw, W. J. (2002) J. Neurosci. Res., 70: 462-473; and Lukiw, W. J. (2004) Neurochem. Research, 29: 1287-1297. Probes were hybridized against HU133Av2 GeneChip DNA arrays that interrogate approximately 33,000 full-length […] genes and expressed sequence tag (EST) clusters. […]
GeneChip Data and Statistical Analysis. […] Volcano plots were plotted representing total gene expression patterns as a function of fold-change as compared to expression patterns of age-matched controls as plotted against p, as calculated by an analysis of variance (ANOVA). […] Statistical significance was analyzed using a two-way factorial analysis of variance (p, ANOVA; Statistical Analysis System; SAS Institute, Cary, N.C. ).

[3] = system: ARPE-19 cells; assay: A2E-induced apoptosis in ARPE-19 cells (Hoechst staining); format: cell-based, human; settings: A2E up to 200 μM
Description: To test the ability of NPD1 to inhibit A2E oxidative stress, ARPE-19 cells grown in 6-well plates were transfected by Fugene 6 with NF-κB promoter sequence linked to a luciferase reporter gene and with IκB-EGFP. Promoterless β-galactosidase was co-transfected in ARPE-19 cells to determine the transfection efficiency. Four hours after transfection, cells were washed and further incubated 8 to 10 h before adding inducers. Two different set of cells were used. One set of cells was serum-starved 5 h before the addition of A2E and TNF-α/H2O2, and further incubated for 20-24 h before harvesting. The other set of cells was not serum-starved or further incubated. Luciferase activity was measured. The IκB-EGFP probe was measured by fluorescence confocal microscopy, and Hoechst-positive cells were identified.

[4] = system: Bcl-2 protein; assay: Western analysis of Bcl-2 in HN cells; format: cell-based, human; settings: 50 nM, p<0.05
Description: Western Analysis. Total protein was extracted, and 25 μg of protein was analyzed by Western blots using human Bcl-2, Bfl-1 (A1) and actin antibodies. […] Human specific anti-Bfl-1(A1)[Cat. No. sc-8351] was obtained from Santa Cruz Biotechnology (Santa Cruz, Calif.). For Western analysis, signal-intensity data were gathered by phosphorimaging onto molecular imaging screens (FUJIFILM) for 3-36 h using a Typhoon Molecular Imager system (Amersham Biosciences) as described in Bazan and Lukiw, 2002.
To confirm the above changes in Bcl-2 and Bfl-1(A1), Western analysis was performed using anti-Bcl-2, anti-Bfl-1(A1), and anti-actin primary antibodies (B3170 Sigma Life Science, sc-8351 Santa Cruz, and A2103 Sigma, respectively). The results of the Western analysis confirm up-regulation of Bcl-2 and Bfl-1(A1) anti-apoptotic proteins over actin controls in DHA- and NPD1-treated cells.

CC/C=C\C[C@H](O)\C=C/C=C/C=C/[C@H](O)C/C=C\C/C=C\CCC(=O)O [NPD1, 10,17S-docosatriene]
green fluorescence (myeloperoxidase immunoreactivity), ipsilateral brain [1]: surprisingly large reduction | B94 gene expression, fold change over untreated controls [2]: nsc | effect on A2E-induced apoptosis [3]: inhibited | Bcl-2 protein increase over controls, normalized with actin [4]: 2.3 fold

Reference: patent US20050075398A1, “Neuroprotectin D1 protects against cellular apoptosis, stroke damage, alzheimer's disease and retinal diseases” (priority 2003, published 2005)
